Drawing on PubChem BioAssay (NCI), this text covers GI50 and TGI for 10 compounds.

Structures are written as SMILES. “And” between values parts separate entries of the source, which are not always exact repeats. Equal values may be shown once.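 These data come from cells grown in 96-well plates and exposed to compound for 48 hours at five concentrations. Here, GI50 denotes the concentration required for 50% inhibition of growth. TGI denotes the concentration required for complete inhibition of growth.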

Common to all, as to assay: NCI-60 cell line screen, 48 h
In assay [1] the test system is M14 melanoma.
The subject of assay [2] is OVCAR-8 ovarian.
Assay [3] deals with A498 renal.
The subject of assay [4] is SR leukemia.
Assay [5] has as its system SNB-75 CNS.
Assay [6] relates to SK-MEL-5 melanoma.
Assay [7] has as its system NCI/ADR-RES ovarian.
Assay [8] deals with SK-MEL-28 melanoma.

As for `c1ccc(OCC[P+](c2ccccc2)(c2ccccc2)c2ccccc2)cc1`, the GI50 in assay [1] is 1.57 µM; in assay [2], 1.54 µM; in assay [3], 3.53 µM; in assay [4] it was 2.31 µM; in assay [5], 0.721 µM; in assay [6], 0.416 µM. Further, the values for the GI50 in assay [7] and in assay [8] were above 66.1 µM and 1.24 µM, respectively. Further, the TGI in assay [1] turned out to be 9.59 µM; in assay [2], 15 µM; in assay [3], 16.6 µM; in assay [4], 12.3 µM; in assay [5], 5.99 µM; in assay [6], 1.56 µM. The TGI in assay [7] was above 100 µM; in assay [8], 9.81 µM.

As for `C/C=C1/CN2CCC34c5ccccc5N5C(=O)C(C6CC78c9ccccc9N9C(=O)C=CC(C%10CC7N6C/C%10=C/C)C98)=CC(C1CC23)C54` (stereo not given), the GI50 in assay [1] is 3.81 µM; in assay [2], 2.78 µM; in assay [3], 10.7 µM; in assay [6], 11.9 µM; in assay [7] it was 2.57 µM; in assay [8], 10.1 µM. The TGI was 11.9 µM and 13.8 µM in assay [1]; 8.57 µM and 10.8 µM in assay [2]; 16.6 µM and 23.7 µM in assay [3]; 50 µM in assay [4]; 14.7 µM in assay [5]; 12 µM and 25.1 µM in assay [6]. Moreover, the TGI was 50 µM and 10.4 µM in assay [7]; 11.3 µM and 22.7 µM in assay [8].

As for `COc1ccc(COc2ccc(Cc3cnc(N)nc3N)cc2OC)cc1`, the GI50 is above 25 µM in assay [1]; above 25 µM in assay [2]; 2.27 µM in assay [3]; 24.3 µM in assay [4]; 8.09 µM in assay [5]; 3.43 µM in assay [6]. Further, the GI50 in assay [7] was above 19 µM; in assay [8], 24.8 µM. For the same compound, the TGI in assay [1] is above 25 µM; in assay [2], above 25 µM; in assay [3], above 25 µM; in assay [4], above 25 µM; in assay [5] it was above 25 µM; in assay [6], 7.66 µM. Also, the TGI in assay [7] and in assay [8] was above 25 µM each time.

On to `CNC(=O)c1cc(Oc2ccc(NC(=O)Nc3ccc(Cl)c(C(F)(F)F)c3)cc2)ccn1`, for which the GI50 was 2.15 µM and 2.11 µM and 2.18 µM in assay [1]; 3 µM and 2.91 µM and 3.03 µM in assay [2]; 3.1 µM and 2.27 µM and 2.15 µM in assay [3]; 1.86 µM and 2.65 µM and 2.73 µM in assay [5]; 1.43 µM and 1.61 µM and 1.57 µM in assay [6]; 3.06 µM and 2.63 µM and 2.65 µM in assay [7]. Besides, in assay [8], the GI50 was 2.42 µM and 2.59 µM and 2.63 µM. In addition, the TGI in assay [1] is 7.98 µM and 5.03 µM and 5.96 µM; in assay [2] it was > 10 µM and 9.06 µM and 20.2 µM; in assay [3] it was 9.48 µM and 6.38 µM and 6.52 µM; in assay [5], > 10 µM and 8.98 µM and 8.78 µM; in assay [6], 3.14 µM and 2.97 µM and 3.25 µM; in assay [7] it was > 10 µM and 7.89 µM and 15.7 µM. Moreover, the TGI in assay [8] is 8.45 µM and 7.23 µM and 7.5 µM.

As for `C#Cc1cccc(NC(=O)C2CCCCN2C(=O)CCl)c1` (stereo not given), the GI50 was 18.8 µM in assay [1]; 20.3 µM in assay [2]; 3.6 µM in assay [4]; 17.9 µM in assay [5]; 9.54 µM in assay [6]; 16.5 µM in assay [7]. Further, the GI50 in assay [8] is 54.1 µM. For the same compound, the TGI is 74.9 µM in assay [1]; above 82.5 µM in assay [2]; 66.8 µM in assay [4]; above 82.5 µM in assay [5]; 41.2 µM in assay [6]; 47.3 µM in assay [7]. In assay [8], this compound showed a TGI above 82.5 µM.

With `Nc1ncnc2c1ncn2Cc1ccc(CCl)cc1`, the GI50 in assay [1] was 25.2 µM; in assay [2], 15.5 µM; in assay [3], 12.6 µM; in assay [5], 22.3 µM; in assay [6] it was 15.2 µM; in assay [7], 18.7 µM. Besides, the GI50 in assay [8] is 21.7 µM. Besides, the TGI in assay [1] is 60.5 µM; in assay [2], 31.5 µM; in assay [3], 31.9 µM; in assay [5] it was 62.6 µM; in assay [6], 28.5 µM; in assay [7], 44.5 µM. The compound further showed a TGI in assay [8] above 100 µM.

For the compound `COc1ccc(CC2OC3(CCCCC3)CC3CCCCN32)cc1` (stereo not given), the TGI in assay [1], in assay [2], in assay [4], in assay [5], in assay [6] and in assay [7] was above 100 µM in each case. This compound also came in with a TGI in assay [8] above 100 µM.

As to `Cc1ccc(O)c(C(=O)/C=C/c2ccccc2)c1`, the TGI in assay [1], in assay [2], in assay [4], in assay [5], in assay [6] and in assay [7] was above 100 µM each time. In addition, the TGI in assay [8] was above 100 µM.

As to `COC1C[C@H](O[C@@H]2C[C@H](O[C@@H]3C[C@H](O[C@@H]4C(=O)c5c(cc6cc(O[C@H]7C[C@@H](O[C@H]8C[C@@H](O)[C@H](O)C(C)O8)[C@H](O)C(C)O7)c(C)c(O)c6c5O)C[C@H]4C(OC)C(=O)[C@@H](O)[C@@H](C)O)OC(C)[C@H]3O)OC(C)[C@@H]2O)OC(C)[C@@H]1O` (stereo not given in full), the GI50 in assay [1] was 0.191 µM; in assay [2], 0.108 µM; in assay [3] it was 0.0395 µM; in assay [4], 0.0406 µM; in assay [5], 0.0622 µM; in assay [6] it was 0.0641 µM. Moreover, the GI50 in assay [7] is above 32.5 µM. In addition, the TGI in assay [1] was 2.15 µM; in assay [2], above 32.5 µM; in assay [3], 0.108 µM; in assay [4], above 32.5 µM; in assay [5] it was 0.442 µM; in assay [6] it was 0.175 µM. In assay [7], this compound came in with a TGI above 32.5 µM.

On to `Cc1c(-c2c(F)cc(C(N)=O)c3[nH]c4c(c23)CC[C@H](C(C)(C)O)C4)cccc1-n1c(=O)c2cccc(F)c2n(C)c1=O`, for which the GI50 in assay [1] was 3.69 µM; in assay [2], 4.16 µM; in assay [3], 2.8 µM; in assay [4] it was 1.88 µM; in assay [6] it was 3.83 µM; in assay [7] it was 3.58 µM. In addition, the GI50 in assay [8] was 4.59 µM. The TGI in assay [1] is 66.1 µM; in assay [2] it was above 100 µM; in assay [3], 10.2 µM; in assay [4], 5.81 µM; in assay [6], 16.2 µM; in assay [7] it was above 100 µM. The compound further had a TGI in assay [8] above 100 µM.
